Each structure is given as a SMILES string. pEC50: −log10 of the molar value.

The test system of assay [1] is HUVEC cells. As to the kind of experiment: HUVEC tube disruption assay. Type of assay: cell-based. How it is done: Aliquots of Matrigel basement membrane matrix (300 μl, BD Biosciences, Mississauga, Ontario, Canada) were added to each well of 24-well plates (Fisher Scientific Ltd, Nepean, Ontario, Canada) and allowed to incubate for 1 h at 37° C. HUVEC cells (3×10^4) were added per well in EGM-2 and incubated for 4 h at 37° C. in a 5% CO2 atmosphere to allow the cells to form tube-like structures. Compound 1R was diluted in DMSO to its respective concentrations, added to cells, and allowed to incubate for 1 h at 37° C. in a 5% CO2 atmosphere. Following the incubation, the medium was gently aspirated and fresh EGM-2 was added and cells were further incubated for 24 h. Miroscopy images were recorded with a Zeiss LSM 510 confocal microscope (Zeiss Canada Ltd, Toronto, Ontario, Canada). The effect of compound 1R on capillary tube disruption was evaluated by light microscopy (×40 magnification) and the results are summarized in Table III.

Assay [2] has as its system ZR-75-1. As to the kind of experiment: Caspase activation assay in ZR-75-1 cells. The format is cell-based. The settings on record: Homo sapiens, ZR751 cells, 24 h incubation, read-out: Caspase activation potency EC50 ZR751. How it is done: Human breast cancer cell lines T-47D and ZR-75-1, human colon cancer cell line DLD-1 and human non-small cell lung cancer cell line H1299 were grown according to media component mixtures designated by American Type Culture Collection+10% FCS (Invitrogen Corporation), in a 5% CO2−95% humidity incubator at 37° C. T-47D and ZR-75-1 cells were maintained at a cell density between 30 and 80% confluency at a cell density of 0.1 to 0.6×10^6 cells/mL. Cells were harvested at 600×g and resuspended at 0.65×10^6 cells/mL into appropriate media+10% FCS. An aliquot of […] of cells was added to a well of a 96-well microtiter plate containing 5 μl of a 10% DMSO in RPMI-1640 media solution containing about 0.16 to 10 μM of 2,7,8-triamino-4-(3-bromo-4,5-dimethoxy-phenyl)-3-cyano-4H-chromene (1) or other test compounds (0.016 to 1 μM final). An aliquot of 45 μl of cells was added to a well of a 96-well microtiter plate containing 5 μl of a 10% DMSO in RPMI-1640 media solution without test compound as the control sample. The samples were mixed by agitation and then incubated at 37° C. for 24 h in a 5% CO2−95% humidity incubator. […] Using a fluorescent plate reader (Model 1420 Wallac Instruments), an initial reading (T=0) was made about 1-2 min after addition of the substrate solution, employing excitation at 485 nm and emission at 530 nm, to determine the background fluorescence of the control sample. After the 3 h incubation, the samples were read for fluorescence as above (T=3 h).
The Relative Fluorescence Unit values (RFU) were used to calculate the sample readings as follows: RFU(T=3h)−Control RFU(T=0)=Net RFU(T=3h)
The activity of caspase cascade activation was determined by the ratio of the net RFU value for 2,7,8-triamino-4-(3-bromo-4,5-dimethoxy-phenyl)-3-cyano-4H-chromene or other test compound to that of control samples. The EC50 (nM) was determined by a sigmoidal dose-response calculation (Prism 2.0, GraphPad Software Inc.).

In general, inhibition refers to the change of the read-out against control, counted positive when it falls. In general, pEC50 refers to the negative decadic logarithm of the EC50, by convention in mol/L. Consider `COc1cc([C@H]2C(C#N)=C(N)Oc3c2ccc(N)c3N)cc(Br)c1OC` [Compound 1R, R(−)-2,7,8-triamino-4-(3-bromo-4,5-dimethoxy-phenyl)-3-cyano-4H-chromene], for which, in assay [1] (3.3 nM), the “Tube formation % inhibition” value is listed as “No inhibition”. Moreover, the “Lowest concentration that inhibited tube formation” value in assay [1] (HUVEC tubes) amounted to 10 nM. The inhibition at 0.01 µM in assay [1] (Homo sapiens, HUVEC, 10 nM, read-out: Tube formation % inhibition) stood at 75%. For the same compound, the inhibition at 0.03 µM in assay [1] (Homo sapiens, HUVEC, 30 nM, read-out: Tube formation % inhibition) is 100%. For the same compound, the inhibition at 0.1 µM in assay [1] (Homo sapiens, HUVEC, 100 nM, read-out: Tube formation % inhibition) stood at 100%. Also, the pEC50 in assay [2] was 7.72.

The record behind these values is US7968595B2, “Substituted 4-aryl-chromene as activator of caspases and inducer of apoptosis and as antivascular agent and the use thereof” (Cytovia, Inc., priority 2006, dated 2011).
